Source: the NIST ThermoML archive (doi:10.1016/j.jct.2008.02.016)
Numbers after ± are expanded uncertainties.

Conditions: Liquid

| vapor or sublimation pressure (303.15 K) [kPa] | vapor or sublimation pressure (313.15 K) [kPa] | vapor or sublimation pressure (323.15 K) [kPa] | Structure (SMILES) |
| --- | --- | --- | --- |
| 7.87 ± 0.16 | 12.33 ± 0.22 | 18.95 ± 0.3 | CCCCCCC [heptane] |
| 25.01 ± 0.37 | 37.54 ± 0.53 | 54.39 ± 0.74 | CCCCCC [hexane] |
